Laboratory results from US4889634A, “Dialysate solution containing hydroxypropyl-beta-cyclodextrin and method of using same” (priority 1988, dated 1989).

Key:
[1] = test system: rats [Crl:CD(SD) BR strain]; assay: 14-day intravenous toxicity study in rats; format: in vivo, rat; details: rat, in vivo, iv, 200 mg/kg
Description: (§1) As part of the toxicological evaluation of HPBCD, control groups of animals were dosed with HPBCD alone.
Two groups (5/sex/group) of rats [Crl:CD(SD) BR strain] were used for this study. Control rats were given 200 mg of salt per kilogram of body weight intravenously administered in a saline control solution comprising 20% salt by weight in water. The saline control was administered every second day for 14 days (i.e. seven injections). The treated rats were given 200 mg of HPBCD per kilogram of body weight intravenously administered (200 mg/kg i.v. HPBCD) via a HPBCD solution containing 20% HPBCD by weight in water on the same injection schedule. […] At the end of the study the animals were necropsied, gross pathology was observed, histopathological samples were prepared and blood was drawn for clinical laboratory measurements.

[2] = test system: normal rats; assay: relative nephrotoxicity of HPBCD and BCD, intraperitoneal; format: in vivo, rat; details: for Mortality (died/total): BCD 0.75% w/v, HPBCD 1.5 and 3% w/v, 15 ml/100 g i.p.
Description: A first study was conducted to determine the relative nephrotoxicity of HPBCD and BCD. A control group using phosphate buffer solution was also included in the study.
Three groups of normal rats were utilized in this study. […] Group I rats were given the vehicle solution of phosphate buffer saline (PBS). Group II rats were subdivided into three sub-groups. The first sub-group received a solution having a concentration of 1.5% HPBCD, the second sub-group received a solution having a concentration of 3% HPBCD while the third sub-group received a solution having a concentration of 6% HPBCD. Group III rats were given a solution having a concentration of 0.75% BCD.
Animals from each group were sacrificed at 24 and 72 hours after injection of the peritoneal solution. The animals were sacrificed under general anesthesia and exsanguinated from the abdominal aorta. Plasma was separated and blood urea nitrogen and creatinine was measured and used as an index of renal toxicity of the solutions.

[3] = test system: Cynomolgus monkeys; details: cynomolgus monkey, in vivo
Description: as §1
Two groups (1/sex/group) of Cynomolgus monkeys were used for this study. Control monkeys were given 200 mg of salt per kilogram of body weight intravenously administered as a saline control solution of 20% by weight in water. The saline control was administered every second day for 14 days (i.e. 7 doses). The treated monkeys were given 200 mg/kg i.v. HPBCD on the same injection schedule. […] At the end of the study the animals were necropsied, gross pathology was observed, histopathology samples were prepared and blood was drawn for clinical laboratory measurements.

[4] = 1 day, BCD 0.75%, HPBCD 1.5 and 3%
[5] = 3 day, BCD 0.75%, HPBCD 1.5 and 3%

## hydroxypropyl-beta-cyclodextrin [HPBCD]
[1]
  Hemoglobin: 13.6 ± 3.06 G/DL
  Ionic phosphate: 8.3 ± 0.82 mg/dL
  Lymphocytes: 6.80 ± 2.42 × 10^3 /mm^3
  Mean corpuscle: 65.0 ± 2.70 fL
  Mean corpuscle hemoglobin: 18.4 ± 2.41 pg
  Monocytes: 0.05 ± 0.08 ×10^3 /mm^3
  Normal blood cells: 0.0 ± 0.00 /100 white blood cells
  Platelet count: 924 ± 395.20 × 10^3 /mm^3
  Potassium: 4.5 ± 0.16 mmol/L
  Red blood cell: 7.32 ± 1.00 × 10^6 /mm^3
  Segmented neutrophils: 0.49 ± 0.22 × 10^3 /mm^3
  Sodium: 141.0 ± 1.10 mmol/L
  Total bilirubin: 0.3 ± 0.05 mg/dL
  Total proteins: 6.5 ± 0.38 G/dL
[2]; 1 day
  Mortality (died/total): 0/6
[2]; [4]
  Kidney size: normal
  Kidney weight: normal
[2]; 1 day, BCD 0.75%, HPBCD 1.5 and 3%, Table III
  BUN: 14.8 mg/dL
[2]; 3 day
  Mortality (died/total): 0/6
[2]; [5]
  Kidney size: normal
  Kidney weight: normal
[2]; 3 day, HPBCD 1.5 and 3%, Table III
  BUN: 19.8 mg/dL
[2]; HPBCD 1.5%, 1d, n = 6
  BUN: 14.8 mg/dL
  Final body weight Wt (f): 210 g
  Initial body weight Wt (i): 213 g
  Left kidney weight (Lt kd): 867 mg
  Left kidney/body weight (Lt kd/wt): 4.11 mg/g
  Mortality: 0%
  Right kidney weight (Rt kd): 860 mg
  Right kidney/body weight (Rt kd/wt): 4.08 mg/g
[2]; HPBCD 1.5%, 3d, n = 6
  BUN: 19.8 mg/dL
  Final body weight Wt (f): 280 g
  Initial body weight Wt (i): 296 g
  Left kidney weight (Lt kd): 1027 mg
  Left kidney/body weight (Lt kd/wt): 3.68 mg/g
  Mortality: 0%
  Right kidney weight (Rt kd): 1009 mg
  Right kidney/body weight (Rt kd/wt): 3.61 mg/g
[2]; HPBCD 3%, 1d, n = 6
  BUN: 15.7 mg/dL
  Final body weight Wt (f): 301 g
  Initial body weight Wt (i): 322 g
  Left kidney weight (Lt kd): 1034 mg
  Left kidney/body weight (Lt kd/wt): 3.43 mg/g
  Mortality: 0%
  Right kidney weight (Rt kd): 1054 mg
  Right kidney/body weight (Rt kd/wt): 3.49 mg/g
[2]; HPBCD 3%, 3d, n = 6
  BUN: 19.9 mg/dL
  Final body weight Wt (f): 267 g
  Initial body weight Wt (i): 275 g
  Left kidney weight (Lt kd): 995 mg
  Left kidney/body weight (Lt kd/wt): 3.72 mg/g
  Mortality: 0%
  Right kidney weight (Rt kd): 1009 mg
  Right kidney/body weight (Rt kd/wt): 3.78 mg/g
[2]; HPBCD 6%, 1d, n = 6
  BUN: 14.5 mg/dL
  Final body weight Wt (f): 227 g
  Initial body weight Wt (i): 240 g
  Left kidney weight (Lt kd): 1076 mg
  Left kidney/body weight (Lt kd/wt): 4.73 mg/g
  Mortality: 0%
  Right kidney weight (Rt kd): 1066 mg
  Right kidney/body weight (Rt kd/wt): 4.70 mg/g
[2]; HPBCD Groups, 1 and 3 day, in words
  Rats died: None of the rats
[3]
  Changes in behavior: No changes in behavior were observed
  Changes in daily food consumption: No weight changes were observed (TABLE XIII) or changes in daily food consumption
  Gross pathological changes and histopathological findings: No gross pathological changes and no histopathological findings were observed
  Hematology and clinical chemistry values: No differences were seen
  Weight changes: No weight changes were observed
[3]; 200 mg/kg
  Basophils: 0.00 × 10^3 /mm^3
  Immature neutrophils: 0.00 × 10^3 mm^3
  Normal blood cells: 0.00 /100 white blood cells
